Assays:
aged chow-fed mice = assay: Oral glucose tolerance test in aged chow-fed mice, with serum insulin and GLP-1; assay type: in vivo, mouse
Experimental: Area under the curve (AUC), *p<0.05 compared to vehicle. […] Area above the curve (AAC). *p<0.05 compared to vehicle. […] Area under the curve (AUC). *p<0.05 compared to vehicle. FIG. 53D is a bar graph showing serum insulin levels 5 min post glucose challenge in chow-fed mice gavaged with 5-PAHSA or vehicle (glucose values shown in FIG. 53C). n=12-14 per group, *p<0.05 compared to vehicle by t-test. FIG. 53E is a bar graph showing serum GLP-1 levels 5 min post glucose challenge from chow-fed mice gavaged with 5-PAHSA or vehicle (glucose levels in FIG. 53C). n=12-14 per group, *p<0.05 compared to vehicle by t-test. FIG. 53F are bar graphs showing insulin secretion from primary human islets from two independent donors. Islets were incubated with low (2.5 mM) or high (20 mM) glucose ex vivo in the presence of 5-PAHSA (20 μM) or vehicle control. n=100 islets per condition, *p<0.05 compared to control 2.5 mM glucose, ^#p<0.05 compared to respective treatments at 2.5 mM glucose, ^$p<0.05 compared to control or diluents at 20 mM glucose by t-test. FIG. 53G are bar graphs showing active GLP-1 secretion from STC-1 cells in response to 5-PAHSA (5-P), 9-PAHSA (9P), […] (LA), GW9508 (GW) or vehicle control (DMSO). n=4 per group, *p<0.05 compared to vehicle by t-test. All data are mean±s.e.m. See also FIG. 56.
Studies were conducted to determine whether the PAHSA effects to improve glucose tolerance resulted entirely from the increased insulin sensitivity or also from improved insulin secretion. Therefore, the effects of PAHSAs on glucose-stimulated insulin secretion were tested in vivo in aged (47 weeks old) chow-fed mice. […] Thus, PAHSAs acutely improve insulin sensitivity and glucose tolerance and stimulate GLP-1 and insulin secretion.

purified CEL = molecular target: T1, purified CEL (Homo sapiens, UniProt P19835); assay: FAHFA hydrolysis by purified CEL; assay type: biochemical; details: micellar concentrations of NaTC
T1 construct: purchased R&D Systems
T1 sequence (P19835 21-753): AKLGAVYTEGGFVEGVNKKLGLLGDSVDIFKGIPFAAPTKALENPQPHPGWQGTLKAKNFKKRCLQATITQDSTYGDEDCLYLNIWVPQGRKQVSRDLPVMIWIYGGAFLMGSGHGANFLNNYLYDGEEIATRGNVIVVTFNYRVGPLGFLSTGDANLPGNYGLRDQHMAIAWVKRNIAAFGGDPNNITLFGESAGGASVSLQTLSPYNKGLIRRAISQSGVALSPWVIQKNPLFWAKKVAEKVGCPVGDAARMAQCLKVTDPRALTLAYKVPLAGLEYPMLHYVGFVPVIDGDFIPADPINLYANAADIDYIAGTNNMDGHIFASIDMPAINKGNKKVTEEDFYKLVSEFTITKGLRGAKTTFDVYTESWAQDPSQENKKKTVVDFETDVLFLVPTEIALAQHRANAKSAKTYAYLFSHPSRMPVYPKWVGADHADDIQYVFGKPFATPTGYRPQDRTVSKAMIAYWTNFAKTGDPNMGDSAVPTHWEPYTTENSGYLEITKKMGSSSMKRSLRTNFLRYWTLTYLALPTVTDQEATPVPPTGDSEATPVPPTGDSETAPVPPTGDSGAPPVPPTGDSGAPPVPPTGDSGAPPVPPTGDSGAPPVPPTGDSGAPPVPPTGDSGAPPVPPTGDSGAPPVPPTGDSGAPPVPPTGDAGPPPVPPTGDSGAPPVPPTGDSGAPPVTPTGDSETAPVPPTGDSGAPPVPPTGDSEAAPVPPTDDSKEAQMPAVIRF
From the text: To confirm the identification of CEL as a FAHFA hydrolase, a small amount of purified enzyme (available commercially from R&D Systems) was used.

[1] = system: LPS-activated dendritic cells; assay: LPS-induced activation of bone marrow-derived dendritic cells; assay type: cell-based, mouse
Experimental: Mouse bone marrow cells were flushed from the femurs and tibiae. The red blood cells were eliminated and the cells plated at a density of 1.0×10^6 cells/mL in RBMI complete medium containing 10% FCS plus 20 ng/ml GM-CSF. The medium was replaced on day 4, and the cells were harvested on day 6 to obtain immature DCs. To obtain mature DCs, LPS was added to the cultures at a final concentration of 100 ng/mL on day 6, and the cells were cultured for an additional 24 h, as previously described by Macia, L., et al. Impairment of dendritic cell functionality and steady-state number in obese mice. J Immunol 177, 5997-6006 (2006), which is incorporated by reference in its entirety. To test the anti-inflammatory effects of 9-PAHSA, immature BMDC were treated with 9-PAHSA in a dose response dependent manner in the presence of 100 ng/mL of LPS. The activation status of the BMDCs was evaluated by measuring the expression of MHCII and co-stimulatory molecules using Flow Cytometry and by the production of pro-inflammatory cytokines (IL-6, TNF, IL-12 and IL-1β) which was assessed by ELISA.
Mouse bone marrow cells were flushed from the femurs and tibiae. The red blood cells were lysed, and the cells were plated at a density of 0.5×10^6 cells/mL in RPMI 1640 Low medium (Gibco, USA) containing 10% FCS (Gibco, USA) and 20 ng/mL GM-CSF. […]
The immature dendritic cells obtained in the day 6 were maturated with LPS in the presence of different concentrations of 9-PAHSA varying between 100 ng/mL to 20 ug/mL. The cells were maturated for 24 h and the maturation status analyzed by cytokine production and co-stimulatory molecules expression.
The cells were analyzed by Multicolor Flow cytometry. […] The cells were analyzed with an LSR II flow cytometer (BD) and FlowJo software.
An ELISA assay (Biolegend) was used to measure the concentration of IL-12p70 protein in conditioned media from immature and mature BMDCs. This assay allowed for the detection of total IL-12p70 concentrations in the range of 15.6-1,000 pg/ml, and the results are expressed as pg/mL IL-12p70.

[2] = FAHFA hydrolysis assay (9-PAHSA to 9-HSA), liver lysate; details: liver lysate 1 mg/ml protein, 100 μM, 37° C., two hours
[3] = 5 minutes after glucose administration

hydrolysis of 9-PAHSA (9-HSA production) (purified CEL) | hydrolysis of 9-PAHSA to 9-HSA [2] | Compound | GLP-1 levels (aged chow-fed mice; [3]) | insulin secretion (aged chow-fed mice; [3]) | glucose tolerance (aged chow-fed mice; OGTT, gavage 30 min prior) | IL-12 production ([1]; LPS 100 ng/mL) | expression of MHCII and co-stimulatory molecules (CD40, CD80, CD86) ([1]; LPS-induced) | LPS-induced dendritic cell activation ([1]; dose response)
 |  | CCCCCCCCCCCCCCCC(=O)OC(CCCCCCCCCCCCC)CCCC(=O)O (centres unmarked) [5-PAHSA] | increased | acute enhancement of insulin secretion | improved glucose tolerance |  |  | 
substantial hydrolysis | Substantial 9-HSA production | CCCCCCCCCCCCCCCC(=O)OC(CCCCCCCCC)CCCCCCCC(=O)O (centres unmarked) [9-PAHSA, palmitoyl-9-hydroxystearic acid] |  |  |  | blocks IL-12 production | reducing expression of MHCII and co-stimulatory molecules | prevents LPS-induced dendritic cell activation in a dose dependent manner

Reference: patent US10604473B2, “Lipids that increase insulin sensitivity and methods of using the same” (Beth Israel Deaconess Medical Center, Inc., priority 2013, dated 2020)
